Data published in patent US20120258980A1, “Antibacterial Agent for Drug-Resistant Bacteria, Method for Screening for Same, and Use of Same” (priority 2009, published 2012).
Converted amounts (≈) assume the structure as drawn. Structures can show the parent of a compound that is named as a salt. Where two headings read alike, the source gives them in different places.

Key:
Enterococcus faecalis = test: MIC measurement, Test Example 6 (enterococcus); format: cell-based; conditions: for MIC: Enterococcus faecalis, read-out: MIC
Experimental: Each of the bacterial strains listed in Table 1-1 was shake-cultured at 37° C. overnight in 4 mL of a medium (Tryptical Soy Broth: TSB, product of Becton Dickinson and Company). FDA209P was used as a control.
After completion of culturing, the resultant culture was suspended in a cation-adjusted Mueller Hinton Broth (CAMHB, product of Becton Dickinson and Company). Then, the obtained bacterial culture was adjusted in absorbance with the CAMHB so that the absorbance at 578 nm of the bacterial culture was adjusted to 0.3 measured by an absorption spectrometer. In addition, the resultant bacterial culture was 500-fold diluted with the CAMHB.
Each of the 500-fold diluted, pre-cultured bacterial cultures was added at 50 μL/well to the CAMHB containing the quinolones and the nybomycins at various concentrations (50 μL/well), followed by statically culturing at 37° C. overnight.
After completion of culturing, the growth of the bacteria was visually determined based on turbidity to measure MIC in each bacterial strain.
Quinolones and nybomycins were evaluated for antibacterial activity against Enterococcus faecalis shown in Table 6, wherein the other strains than NCTC12201 and NCTC12203 were subdivided from Shionogi & Co., Ltd (note that these strains are available also from the Department of Bacteriology, Juntendo University). The NCTC strains are both vancomycin-resistant E. faecalis and available from the National Collection of Type Cultures (NCTC).

VRSA clinical isolates = conditions: based on NARSA, cited from earlier work
[1] = E. faecalis 36-15672, quinolone-susceptible enterococci
[2] = E. faecalis 36-15673, quinolone-susceptible enterococci
[3] = E. faecalis 36-15678, quinolone-susceptible enterococci
[4] = E. faecalis 36-15686, quinolone-resistant enterococci
[5] = E. faecalis 36-15688, quinolone-susceptible enterococci
[6] = E. faecalis 36-15694, quinolone-resistant enterococci
[7] = E. faecalis 36-15696, quinolone-susceptible enterococci
[8] = E. faecalis 36-15703, quinolone-resistant enterococci
[9] = E. faecalis 36-15716, quinolone-resistant enterococci
[10] = E. faecalis 36-15718, quinolone-susceptible enterococci
[11] = E. faecalis 36-15720, quinolone-susceptible enterococci
[12] = E. faecalis 36-15722, quinolone-resistant enterococci
[13] = E. faecalis 36-15726, quinolone-resistant enterococci
[14] = E. faecalis 36-15730, quinolone-susceptible enterococci
[15] = E. faecalis 36-15736, quinolone-susceptible enterococci
[16] = E. faecalis 36-15741, quinolone-susceptible enterococci
[17] = NCTC 12201 / VRE, E. faecalis NCTC12201, vancomycin-resistant (VRE), quinolone-susceptible enterococci
[18] = NCTC 12203 / VRE, E. faecalis NCTC12203, vancomycin-resistant (VRE), quinolone-susceptible enterococci

Row | Structure (SMILES) | MIC (Enterococcus faecalis; [1]) | MIC (Enterococcus faecalis; [2]) | MIC (Enterococcus faecalis; [3]) | MIC (Enterococcus faecalis; [4]) | MIC (Enterococcus faecalis; [5]) | MIC (Enterococcus faecalis; [6]) | MIC (Enterococcus faecalis; [7]) | MIC (Enterococcus faecalis; [8]) | MIC (Enterococcus faecalis; [9]) | MIC (Enterococcus faecalis; [10]) | MIC (Enterococcus faecalis; [11]) | MIC (Enterococcus faecalis; [12]) | MIC (Enterococcus faecalis; [13]) | MIC (Enterococcus faecalis; [14]) | MIC (Enterococcus faecalis; [15]) | MIC (Enterococcus faecalis; [16]) | MIC (Enterococcus faecalis; [17]) | MIC (Enterococcus faecalis; [18]) | other results
1 | CC1COc2c(N3CCN(C)CC3)c(F)cc3c(=O)c(C(=O)O)cn1c23 (stereo not drawn) [OFLX, ofloxacin] | 2 µg/mL (≈ 5.53 µM) | 2 µg/mL (≈ 5.53 µM) | 2 µg/mL (≈ 5.53 µM) | 128 µg/mL (≈ 354 µM) | 2 µg/mL (≈ 5.53 µM) | 64 µg/mL (≈ 177 µM) | 2 µg/mL (≈ 5.53 µM) | 64 µg/mL (≈ 177 µM) | 128 µg/mL (≈ 354 µM) | 2 µg/mL (≈ 5.53 µM) | 2 µg/mL (≈ 5.53 µM) | 64 µg/mL (≈ 177 µM) | 128 µg/mL (≈ 354 µM) | 4 µg/mL (≈ 11.1 µM) | 2 µg/mL (≈ 5.53 µM) | 4 µg/mL (≈ 11.1 µM) | 2 µg/mL (≈ 5.53 µM) | 2 µg/mL (≈ 5.53 µM) | –
2 | Cc1cc(=O)n(C)c2c3c4c(cc12)c(C)cc(=O)n4CO3 [DNM, deoxynybomycin] | > 64 µg/mL | > 64 µg/mL | > 64 µg/mL | 2 µg/mL (≈ 7.08 µM) | > 64 µg/mL | 2 µg/mL (≈ 7.08 µM) | > 64 µg/mL | 0.25 µg/mL (≈ 0.886 µM) | 4 µg/mL (≈ 14.2 µM) | 32 µg/mL (≈ 113 µM) | > 64 µg/mL | 4 µg/mL (≈ 14.2 µM) | 2 µg/mL (≈ 7.08 µM) | 64 µg/mL (≈ 227 µM) | > 64 µg/mL | > 64 µg/mL | 16 µg/mL (≈ 56.7 µM) | > 64 µg/mL | –
3 | C[C@@H]1CN(c2c(F)c(N)c3c(=O)c(C(=O)O)cn(C4CC4)c3c2F)C[C@H](C)N1 [SPFX, sparfloxacin] | 1 µg/mL (≈ 2.55 µM) | 1 µg/mL (≈ 2.55 µM) | 0.5 µg/mL (≈ 1.27 µM) | 128 µg/mL (≈ 326 µM) | 0.5 µg/mL (≈ 1.27 µM) | 64 µg/mL (≈ 163 µM) | 0.5 µg/mL (≈ 1.27 µM) | 32 µg/mL (≈ 81.5 µM) | 64 µg/mL (≈ 163 µM) | 0.5 µg/mL (≈ 1.27 µM) | 1 µg/mL (≈ 2.55 µM) | 64 µg/mL (≈ 163 µM) | 64 µg/mL (≈ 163 µM) | 1 µg/mL (≈ 2.55 µM) | 0.5 µg/mL (≈ 1.27 µM) | 1 µg/mL (≈ 2.55 µM) | 0.5 µg/mL (≈ 1.27 µM) | 0.5 µg/mL (≈ 1.27 µM) | –
4 | CCn1cc(C(=O)O)c(=O)c2cc(F)c(N3CCNCC3)cc21 [NFLX, norfloxacin] | 4 µg/mL (≈ 12.5 µM) | 4 µg/mL (≈ 12.5 µM) | 4 µg/mL (≈ 12.5 µM) | > 128 µg/mL | 2 µg/mL (≈ 6.26 µM) | > 128 µg/mL | 4 µg/mL (≈ 12.5 µM) | 64 µg/mL (≈ 200 µM) | > 128 µg/mL | 4 µg/mL (≈ 12.5 µM) | 8 µg/mL (≈ 25.1 µM) | 128 µg/mL (≈ 401 µM) | 128 µg/mL (≈ 401 µM) | 8 µg/mL (≈ 25.1 µM) | 4 µg/mL (≈ 12.5 µM) | 4 µg/mL (≈ 12.5 µM) | 2 µg/mL (≈ 6.26 µM) | 2 µg/mL (≈ 6.26 µM) | –
5 | NC1CCN(c2nc3c(cc2F)c(=O)c(C(=O)O)cn3-c2ccc(F)cc2F)C1 (stereo not drawn) [TFLX, tosufloxacin tosylate] | 0.5 µg/mL | 0.5 µg/mL | 0.5 µg/mL | > 128 µg/mL | ≤ 0.063 µg/mL | > 128 µg/mL | 0.25 µg/mL | > 128 µg/mL | > 128 µg/mL | 0.25 µg/mL | 0.5 µg/mL | > 128 µg/mL | > 128 µg/mL | 0.5 µg/mL | 0.25 µg/mL | 0.5 µg/mL | 0.25 µg/mL | 0.5 µg/mL | –
6 | Cc1cc(=O)n2c3c(c4c(cc13)c(CO)cc(=O)n4C)OC2 [NM, nybomycin] | > 64 µg/mL | > 64 µg/mL | > 64 µg/mL | 0.5 µg/mL (≈ 1.68 µM) | > 64 µg/mL | 1 µg/mL (≈ 3.35 µM) | > 64 µg/mL | 2 µg/mL (≈ 6.7 µM) | 1 µg/mL (≈ 3.35 µM) | 32 µg/mL (≈ 107 µM) | > 64 µg/mL | 1 µg/mL (≈ 3.35 µM) | 0.5 µg/mL (≈ 1.68 µM) | > 64 µg/mL | > 64 µg/mL | > 64 µg/mL | 8 µg/mL (≈ 26.8 µM) | 16 µg/mL (≈ 53.6 µM) | antibacterial activity, comparison between NM and DNM (Enterococcus faecalis; against enterococci): higher antibacterial activity against enterococci than DNM
7 | CN[C@H](CC(C)C)C(=O)N[C@H]1C(=O)N[C@@H](CC(N)=O)C(=O)N[C@H]2C(=O)N[C@H]3C(=O)N[C@H](C(=O)N[C@H](C(=O)O)c4cc(O)cc(O)c4-c4cc3ccc4O)[C@H](O)c3ccc(c(Cl)c3)Oc3cc2cc(c3O[C@@H]2O[C@H](CO)[C@@H](O)[C@H](O)[C@H]2O[C@H]2C[C@](C)(N)[C@H](O)[C@H](C)O2)Oc2ccc(cc2Cl)[C@H]1O [VCM, vancomycin] | – | – | – | – | – | – | – | – | – | – | – | – | – | – | – | – | – | – | MIC (VRSA clinical isolates; VRS1, VRSA, Michigan): >256 µg/mL; MIC (VRSA clinical isolates; VRS2, VRSA, Pennsylvania): 64 µg/mL (≈ 44.2 µM); MIC (VRSA clinical isolates; VRS3, VRSA, New York): >32 µg/mL; MIC (VRSA clinical isolates; VRS4, VRSA, New York): >32 µg/mL; MIC (VRSA clinical isolates; VRS5, VRSA, Michigan): >256 µg/mL; MIC (VRSA clinical isolates; VRS6, VRSA, Michigan): >256 µg/mL; MIC (VRSA clinical isolates; VRS7, VRSA, Michigan): >256 µg/mL
8 | C[C@H]1COc2c(N3CCN(C)CC3)c(F)cc3c(=O)c(C(=O)O)cn1c23 [LVFX, levofloxacin] | 1 µg/mL (≈ 2.77 µM) | 1 µg/mL (≈ 2.77 µM) | 1 µg/mL (≈ 2.77 µM) | 64 µg/mL (≈ 177 µM) | 1 µg/mL (≈ 2.77 µM) | 64 µg/mL (≈ 177 µM) | 1 µg/mL (≈ 2.77 µM) | 32 µg/mL (≈ 88.6 µM) | 32 µg/mL (≈ 88.6 µM) | 2 µg/mL (≈ 5.53 µM) | 1 µg/mL (≈ 2.77 µM) | 64 µg/mL (≈ 177 µM) | 64 µg/mL (≈ 177 µM) | 2 µg/mL (≈ 5.53 µM) | 1 µg/mL (≈ 2.77 µM) | 2 µg/mL (≈ 5.53 µM) | 1 µg/mL (≈ 2.77 µM) | 1 µg/mL (≈ 2.77 µM) | –
9 | Cc1onc(-c2ccccc2)c1C(=O)N[C@@H]1C(=O)N2[C@@H]1SC(C)(C)[C@@H]2C(=O)O [OXA, oxacillin] | – | – | – | – | – | – | – | – | – | – | – | – | – | – | – | – | – | – | MIC (VRSA clinical isolates; VRS1, VRSA, Michigan): >16 µg/mL; MIC (VRSA clinical isolates; VRS2, VRSA, Pennsylvania): >16 µg/mL; MIC (VRSA clinical isolates; VRS3, VRSA, New York): >16 µg/mL; MIC (VRSA clinical isolates; VRS4, VRSA, New York): >16 µg/mL; MIC (VRSA clinical isolates; VRS5, VRSA, Michigan): >16 µg/mL; MIC (VRSA clinical isolates; VRS6, VRSA, Michigan): >16 µg/mL; MIC (VRSA clinical isolates; VRS7, VRSA, Michigan): 8 µg/mL (≈ 19.9 µM)
